The values that follow are results of earlier work, collected in PMC7070407, “Moringin, A Stable Isothiocyanate from Moringa oleifera, Activates the Somatosensory and Pain Receptor TRPA1 Channel In Vitro” (Molecules, 2020).

The data set has as its target T1, rat TRPA1 (Rattus norvegicus, UniProt Q6RI86).
T1 construct: expressed in transfected cells; host or cells: HEK-293
Further details: method as in PMID 28903060. To be noted: TRPA1 in vitro; cited from earlier work.

T1 sequence (Q6RI86 whole entry): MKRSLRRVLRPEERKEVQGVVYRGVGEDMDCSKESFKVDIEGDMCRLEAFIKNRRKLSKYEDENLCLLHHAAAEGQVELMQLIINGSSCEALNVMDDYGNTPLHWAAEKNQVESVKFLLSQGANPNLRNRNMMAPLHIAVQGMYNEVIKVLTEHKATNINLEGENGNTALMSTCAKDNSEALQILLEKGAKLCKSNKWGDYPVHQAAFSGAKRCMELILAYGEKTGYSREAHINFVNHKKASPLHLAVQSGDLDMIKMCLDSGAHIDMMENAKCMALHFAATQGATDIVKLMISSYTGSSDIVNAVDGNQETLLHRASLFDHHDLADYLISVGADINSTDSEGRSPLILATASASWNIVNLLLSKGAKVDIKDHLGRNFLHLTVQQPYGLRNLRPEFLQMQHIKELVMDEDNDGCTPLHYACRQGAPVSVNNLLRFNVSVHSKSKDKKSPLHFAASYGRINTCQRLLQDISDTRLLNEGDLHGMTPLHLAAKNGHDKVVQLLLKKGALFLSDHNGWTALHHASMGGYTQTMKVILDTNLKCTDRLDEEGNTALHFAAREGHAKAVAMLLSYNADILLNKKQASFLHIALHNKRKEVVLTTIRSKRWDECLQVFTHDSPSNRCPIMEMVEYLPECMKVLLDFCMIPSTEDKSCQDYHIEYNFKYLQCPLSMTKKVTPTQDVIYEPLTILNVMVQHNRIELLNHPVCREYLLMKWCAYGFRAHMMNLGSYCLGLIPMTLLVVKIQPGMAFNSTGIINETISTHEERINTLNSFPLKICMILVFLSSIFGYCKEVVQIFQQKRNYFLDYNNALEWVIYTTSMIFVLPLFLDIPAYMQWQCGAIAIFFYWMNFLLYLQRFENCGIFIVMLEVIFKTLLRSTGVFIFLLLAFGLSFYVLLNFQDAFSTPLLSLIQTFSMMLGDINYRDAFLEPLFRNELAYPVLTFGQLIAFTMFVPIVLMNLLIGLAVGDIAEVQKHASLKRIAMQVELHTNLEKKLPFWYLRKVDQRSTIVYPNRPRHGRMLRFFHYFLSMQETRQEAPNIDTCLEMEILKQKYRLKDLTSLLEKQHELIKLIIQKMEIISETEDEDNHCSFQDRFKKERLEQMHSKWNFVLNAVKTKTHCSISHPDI

As usually defined, the EC50 is the concentration that produces a half-maximal response. For the molecule `COc1cc(/C=C/C(=O)CC(=O)/C=C/c2ccc(O)c(OC)c2)ccc1O` [curcumin], the EC50 is 3.3 µM.
